Measured values published in US12209096B2, “Compounds and compositions for inducing chondrogenesis” (NOVARTIS AG, priority 2017, dated 2025).
Like-named read-outs stand apart in the source and are kept apart here.

Columns and labels:
NHACs = test: calcium flux assay; type: cell-based, human; details: for Emax: read-out: (A) % Efficacy
In short: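 FLIPR fluorescence (ex 470–495 nm, em 515–575 nm) was read before and after compound dispense at the indicated dose. Chondrocytes (NHACs), 2000 cells/well, had been dye-loaded 24 h after plating with Calcium 5 in HBSS/HEPES plus 5 mM probenecid, 1 h, room temperature.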

[1] = tested on: human chondrogenic progenitor cell (CPCs); test: Collagen type II assay (chondrogenic differentiation); type: cell-based; details: 432 h, hCPCs, 18 days; for Emax: read-out: (B) % Efficacy; for EC50: read-out: (B) EC50
Description: To initiate chondrogenesis in primary CPCs, 8000 cells were plated/well in a Costar 96 well plate in MSCGM. After 24 hours the MSCGM was removed and replaced with DMEM containing 1% FBS. The test compound was then added to each well at the indicated dose. The cultures were grown at 37° C. for 18 days. A media supplement of an additional 50 μl of DMEM containing 1% FBS was given 10 days after chondrogenic induction.
To detect the presence of Collagen type II, hCPCs were fixed with 10% formalin for 20 minutes, permeablized with PBS containing 0.1% triton X-100, 0.2 mg/ml of Collagenase 2 for 10 minutes, blocked with PBS containing 5% BSA for 1 hr at room temperature, followed by incubation with primary antibody (anti-type II collagen antibody) in PBS containing 1% BSA overnight at 4° C. Cells were washed 3 times with PBS and incubated with fluorophore-conjugated secondary antibody and Hoechst dye for 1 hour at room temperature, followed by washing with PBS for 3 times.
The total intensity of staining was imaged by fluoresecent microscopy and/or quantified by high content imagining with the ImageXpress Micro (Molecular Devices, Sunnyvale, CA). Data analyses were performed with the customized multiwavelength cell-scoring application.

[2] = tested on: normal human articular chondrocytes (NHACs); test: alkaline phosphatase assay in NHAC; type: cell-based; details: 10 days; for Emax: read-out: (C) % Efficacy; for IC50: read-out: (C) IC50
Description: To initiate differentiation in NHACs, 16,000 cells were plated/well in Costar 96 well plate in CGM media (Lonza). After 24 hours the MSCGM was removed and replaced with DMEM containing 1% FBS. The test compound was then added to each well at the indicated dose. The cultures were grown at 37° C. for 10 days.
To detect the presence of hypertrophic cells, NHACs were fixed with 10% formalin and Hoeschst dye for 20 minutes, rinsed in PBS, then stained with Fast Blue RR Salt with Naphthol AS-MX Phosphate Alkaline Solution.
(§1) The total intensity of staining was imaged by fluoresecent microscopy, using the 651 wavelength, and/or quantified by high content imagining with the ImageXpress Micro (Molecular Devices, Sunnyvale, CA). Data analyses were performed with the customized multiwavelength cell-scoring application.

C3H10T1/2 cell line = test: alkaline phosphatase assay in C3H10T1/2; type: cell-based; details: alkaline phosphatase assay in C3H10T1/2, 6 days; for Emax: read-out: (D) % Efficacy; for IC50: read-out: (D) IC50
Description: To initiate differentiation in C3H10T1/2, Clone 8 (ATCC cat #CCL-226), 4,000 cells were plated/well in 384 Perkin Elmer CellCarrier Ultra plate in DMEM/High glucose (HyClone cat #SH30022.01) containing 10% FBS and 1× Antibiotic/Antimycotic (HyClone cat #SV30079.01). After 24 hours the test compound was then added to each well at the indicated dose. The cultures were grown at 37° C. for 6 days.
To detect the presence of hypertrophic cells, C3H10T1/2 were fixed with 4% paraformaldehyde and Hoeschst dye for 20 minutes, rinsed in PBS, then stained with Fast Blue RR Salt with Naphthol AS-MX Phosphate Alkaline Solution.
as §1, with “ALP” for “total intensity of”, “561” for “651”, “Micro Confocal” for “Micro”, “application looking at the number of ALP positive cells per well.” for “application.”

[3] = Homo sapiens, Chondrocyte, 240 h
[4] = Mus musculus, C3H 10T1/2, 144 h

Compound | EC50 (NHACs; Homo sapiens) [µM] | IC50 (C3H10T1/2 cell line; [4]) [µM] | EC50 (NHACs) [µM] | (C) % Efficacy [2] [%] | IC50 [2] [µM] | IC50 (C3H10T1/2 cell line) [µM] | Emax (NHACs; Homo sapiens) [%] | Emax [1] [%] | EC50 [1] [µM] | Emax [2, 3] [%] | IC50 [2, 3] [µM] | Emax (C3H10T1/2 cell line; [4]) [%] | (A) % Efficacy (NHACs) [%] | (D) % Efficacy (C3H10T1/2 cell line) [%]
O=C(Nc1ccc(Cl)c(Cl)c1)[C@H]1[C@@H](c2ccncc2)[C@H]2O[C@@H]1C[C@@H]2O (single isomer, unassigned) [Example 47a] | > 50 | > 20 | – | – | – | – | 68 | 82 | 2.1 | 88 | 33 | 23 | – | –
O=C(Nc1ccc(Cl)c(Cl)c1)[C@@H]1[C@@H]2O[C@@H]([C@H]3C[C@H]32)[C@@H]1c1cncnc1 [Example 27] | – | – | 13 | 71 | 34 | > 20 | – | – | – | – | – | – | 120 | 48
O=C(Nc1cnc(Cl)c(Cl)c1)[C@H]1[C@@H]2O[C@@H]([C@H]3C[C@H]32)[C@@H]1c1ccnc(F)c1F [Example 124, (1S,2S,4R,5R,6R,7S)—N-(5,6-dichloropyridin-3-yl)-7-(2,3-difluoropyridin-4-yl)-8-oxatricyclo[3.2.1.0^2,4]octane-6-carboxamide] | 2.8 | 17 | – | – | – | – | 160 | – | – | – | – | 59 | – | –
Cc1cc([C@H]2[C@H]3O[C@H]([C@@H]4C[C@@H]43)[C@@H]2C(=O)Nc2ncc(C)s2)ccn1 [Example 70, (1S,2S,4R,5R,6R,7S)-7-(2-methylpyridin-4-yl)-N-(5-methylthiazol-2-yl)-8-oxatricyclo[3.2.1.0^2,4]octane-6-carboxamide] | > 50 | > 20 | – | – | – | – | 25 | – | – | – | – | 1 | – | –
Cn1ccc([C@H]2[C@H]3O[C@H](C[C@@H]3O)[C@@H]2C(=O)Nc2ccc(Cl)c(Cl)c2)n1 [Example 153, (1R,2R,3S,4R,5S)—N-(3,4-dichlorophenyl)-5-hydroxy-3-(1-methyl-1H-pyrazol-3-yl)-7-oxabicyclo[2.2.1]heptane-2-carboxamide] | 19 | > 20 | – | – | – | – | 121 | – | – | – | – | 46 | – | –
O=C(Nc1ccc(Cl)c(Cl)c1)[C@@H]1[C@H]2O[C@H]([C@@H]3C[C@@H]32)[C@H]1c1cncnc1 (single isomer, unassigned) [Example 126b] | 5.6 | > 20 | – | – | – | – | 103 | – | – | – | – | 42 | – | –
Cc1cc([C@H]2[C@H]3O[C@H]([C@@H]4C[C@@H]43)[C@@H]2C(=O)Nc2cccc(OC(F)(F)F)c2)ccn1 [Example 69, (1S,2S,4R,5R,6R,7S)-7-(2-methylpyridin-4-yl)-N-(3-(trifluoromethoxy)phenyl)-8-oxatricyclo[3.2.1.0^2,4]octane-6-carboxamide] | 21 | > 20 | – | – | – | – | 180 | – | – | – | – | 63 | – | –
Cc1cc([C@H]2[C@H]3O[C@H](C[C@@H]3O)[C@H]2C(=O)Nc2cccc(C(F)(F)F)c2)ccn1 [Example 8, (1R,2S,3S,4R,5S)-5-hydroxy-3-(2-methylpyridin-4-yl)-N-[3-(trifluromethyl)phenyl]-7-oxabicyclo[2.2.1]heptane-2-carboxamide] | > 50 | > 20 | – | – | – | – | 50 | – | – | 62 | > 31 | 16 | – | –
O=C(Nc1ccc(Cl)c(Cl)c1)[C@H]1[C@@H](c2ccnc(C(F)(F)F)c2)[C@H]2O[C@@H]1C[C@@H]2O (single isomer, unassigned) [Example 54a] | 3.5 | > 20 | – | – | – | – | 45 | – | – | – | – | 35 | – | –
O=C(Nc1ccc(Cl)c(Cl)c1)[C@H]1[C@@H](c2ccnc(C(F)(F)F)c2)[C@H]2O[C@@H]1C[C@@H]2O (racemic) [Example 54, rac-(1R,2S,3S,4R,5S)—N-(3,4-dichlorophenyl)-5-hydroxy-3-(2-(trifluoromethyl)pyridin-4-yl)-7-oxabicyclo[2.2.1]heptane-2-carboxamide] | > 50 | > 20 | – | – | – | – | 22 | – | – | – | – | 35 | – | –

Continued, in another order:

EC50 (NHACs; Homo sapiens) [µM] | IC50 (C3H10T1/2 cell line; [4]) [µM] | EC50 (NHACs) [µM] | (C) % Efficacy [2] [%] | IC50 [2] [µM] | IC50 (C3H10T1/2 cell line) [µM] | Compound | Emax (NHACs; Homo sapiens) [%] | Emax [1] [%] | EC50 [1] [µM] | Emax [2, 3] [%] | IC50 [2, 3] [µM] | Emax (C3H10T1/2 cell line; [4]) [%] | (A) % Efficacy (NHACs) [%] | (D) % Efficacy (C3H10T1/2 cell line) [%]
6.1 | > 20 | – | – | – | – | Cc1cc([C@H]2[C@H]3O[C@H]([C@@H]4C[C@@H]43)[C@H]2C(=O)Nc2ccc(Cl)c(Cl)c2)ccn1 (single isomer, unassigned) [Example 23a] | 99 | 29 | 0.78 | 100 | 30 | 28 | – | –
> 50 | > 20 | – | – | – | – | Cc1cc([C@H]2[C@H]3O[C@H](C[C@@H]3O)[C@H]2C(=O)Nc2ccc(Cl)c(Cl)c2)ccn1 (single isomer, unassigned) [Example 53a] | 12 | 44 | 13 | 83 | 31 | 0 | – | –
18 | > 20 | – | – | – | – | Cc1cc([C@H]2[C@H]3O[C@H]([C@H](O)[C@@H]3O)[C@@H]2C(=O)Nc2ccc(Cl)c(Cl)c2)ccn1 (single isomer, unassigned) [Example 156] | 28 | 99 | 0.95 | 103 | 15 | 42 | – | –
3 | 7 | – | – | – | – | Cc1cc([C@H]2[C@H]3O[C@H]([C@@H]4C[C@@H]43)[C@@H]2C(=O)Nc2ccc(Cl)c(Cl)c2)ccn1 [Example 117, (1S,2S,4R,5R,6R,7S)—N-(3,4-dichlorophenyl)-7-(2-methylpyridin-4-yl)-8-oxatricyclo[3.2.1.0^2,4]octane-6-carboxamide] | 177 | – | – | – | – | 59 | – | –
> 50 | > 20 | – | – | – | – | Cc1cc([C@H]2[C@H]3O[C@H](C[C@H]3NC3CCOCC3)[C@@H]2C(=O)Nc2ccc(Cl)c(Cl)c2)ccn1 [Example 169, (1R,2R,3S,4R,5R)—N-(3,4-dichlorophenyl)-3-(2-methylpyridin-4-yl)-5-((tetrahydro-2H-pyran-4-yl)amino)-7-oxabicyclo[2.2.1]heptane-2-carboxamide] | 69 | – | – | – | – | 54 | – | –
6 | > 20 | – | – | – | – | COc1cc([C@H]2[C@H]3O[C@H](C[C@H]3F)[C@@H]2C(=O)Nc2ccc(Cl)c(Cl)c2)ccn1 [Example 165, (1R,2R,3S,4R,5R)—N-(3,4-dichlorophenyl)-5-fluoro-3-(2-methoxypyridin-4-yl)-7-oxabicyclo[2.2.1]heptane-2-carboxamide] | 110 | – | – | – | – | 59 | – | –
24 | > 20 | – | – | – | – | Cc1cc([C@H]2[C@H]3O[C@H](C[C@H]3N(C)C)[C@@H]2C(=O)Nc2ccc(Cl)c(Cl)c2)ccn1 [Example 166, (1R,2R,3S,4R,5R)—N-(3,4-dichlorophenyl)-5-(dimethylamino)-3-(2-methylpyridin-4-yl)-7-oxabicyclo[2.2.1]heptane-2-carboxamide] | 68 | – | – | – | – | 0 | – | –
18 | > 20 | – | – | – | – | Cc1cc([C@@H]2[C@@H]3O[C@@H](C[C@@H]3F)[C@H]2C(=O)Nc2ccc(Cl)c(Cl)c2)ccn1 (single isomer, unassigned) [Example 94] | 157 | – | – | – | – | 0 | – | –
30 | 11 | – | – | – | – | Cc1cc([C@H]2[C@H]3O[C@H](C[C@H]3O)[C@@H]2C(=O)Nc2ccc(Cl)c(Cl)c2)ccn1 [Example 180, (1R,2R,3S,4R,5R)—N-(3,4-dichlorophenyl)-5-hydroxy-3-(2-methylpyridin-4-yl)-7-oxabicyclo[2.2.1]heptane-2-carboxamide] | 113 | – | – | – | – | 69 | – | –
